Assay results published in US5561228A, “Macrocyclic immunomodulators” (Abbott Laboratories, priority 1994, dated 1996).

test system: human mixed lymphocyte reaction (MLR); assay: human mixed lymphocyte reaction (MLR) assay; assay type: cell-based; conditions: immunosuppressant activity, Table 1
Experimental: The immunosuppressant activity of the compounds of the present invention was determined using the human mixed lymphocyte reaction (MLR) assay described by Kino, T. et al. in Transplantation Proceedings, XIX(5):36-39,Suppl. 6 (1987).

IC50, < 1000 nM:
CC[C@@H]1/C=C(\C)C[C@H](C)C[C@H](OC)[C@H]2O[C@@](O)(C(=O)C(=O)N3CCCC[C@H]3C(=O)O[C@H](/C(C)=C/[C@@H](CC=NN(C)C)CCC#N)[C@H](C)[C@@H](O)CC1=O)[C@H](C)C[C@@H]2OC [Example 417]
CC[C@@H]1/C=C(\C)C[C@H](C)C[C@H](OC)[C@H]2O[C@@](O)(C(=O)C(=O)N3CCCC[C@H]3C(=O)O[C@H](/C(C)=C/[C@@H](CC=NO)CCC#N)[C@H](C)[C@@H](O)CC1=O)[C@H](C)C[C@@H]2OC [Example 419]
CC[C@@H]1/C=C(\C)C[C@H](C)C[C@H](OC)[C@H]2O[C@@](O)(C(=O)C(=O)N3CCCC[C@H]3C(=O)O[C@H](/C(C)=C/[C@@H](CC=NOCC(=O)O)CCC#N)[C@H](C)[C@@H](O)CC1=O)[C@H](C)C[C@@H]2OC [Example 421]
CC[C@@H]1/C=C(\C)C[C@H](C)C[C@H](OC)[C@H]2O[C@@](O)(C(=O)C(=O)N3CCCC[C@H]3C(=O)O[C@H](/C(C)=C/[C@@H](CCO)CCC#N)[C@H](C)[C@@H](O)CC1=O)[C@H](C)C[C@@H]2OC [Example 425]
